Results published in the NIST ThermoML archive (doi:10.1021/je0503296).
± gives the expanded uncertainty stated by the source.

Details: Liquid, Vibrating object- edge clamped plate

CCCCCCCC [octane]
Details	mass density [kg/m3]	viscosity [mPa·s]
323.15 K, 100 kPa	676 ± 1.4	0.3892 ± 0.0095
323.15 K, 10096 kPa	687.7 ± 1.4	0.44 ± 0.011
323.15 K, 20701 kPa	698.1 ± 1.4	0.495 ± 0.012
323.15 K, 30654 kPa	706.7 ± 1.4	0.53 ± 0.013
323.15 K, 41050 kPa	714.6 ± 1.4	0.576 ± 0.014
323.15 K, 54543 kPa	723.9 ± 1.4	0.633 ± 0.016
323.15 K, 68036 kPa	732.2 ± 1.5	0.693 ± 0.017
348.14 K, 100 kPa	654.3 ± 1.3	0.3011 ± 0.0081
348.14 K, 7551 kPa	664.7 ± 1.3	0.3338 ± 0.0087
348.14 K, 13680 kPa	672.2 ± 1.3	0.3513 ± 0.0088
348.14 K, 20500 kPa	679.4 ± 1.4	0.378 ± 0.01
348.14 K, 27466 kPa	686.1 ± 1.4	0.4008 ± 0.0099
348.14 K, 27469 kPa	686.1 ± 1.4	0.4 ± 0.01
348.14 K, 34305 kPa	692.1 ± 1.4	0.424 ± 0.01
348.14 K, 34314 kPa	690.8 ± 1.4	0.424 ± 0.01
348.14 K, 41226 kPa	697.9 ± 1.4	0.449 ± 0.011
348.14 K, 41227 kPa	697.8 ± 1.4	0.449 ± 0.011
348.14 K, 48070 kPa	703.1 ± 1.4	0.471 ± 0.012
348.14 K, 55000 kPa	708.2 ± 1.4	0.498 ± 0.012
348.14 K, 55004 kPa	708.1 ± 1.4	0.499 ± 0.012
348.14 K, 61992 kPa	714.2 ± 1.4	0.522 ± 0.015
348.14 K, 61994 kPa	712.8 ± 1.4	0.533 ± 0.015
373.12 K, 6723 kPa	644.7 ± 1.3	0.2757 ± 0.0067
373.12 K, 6724 kPa	644.6 ± 1.3	0.2758 ± 0.0067
373.12 K, 20592 kPa	662.9 ± 1.3	0.3205 ± 0.008
373.12 K, 20599 kPa	662.9 ± 1.3	0.3217 ± 0.0079
373.12 K, 27397 kPa	670.3 ± 1.3	0.3429 ± 0.009
373.12 K, 27402 kPa	670.4 ± 1.3	0.3429 ± 0.0089
373.12 K, 34317 kPa	677.1 ± 1.4	0.3646 ± 0.0089
373.12 K, 34324 kPa	677.2 ± 1.4	0.3649 ± 0.0089
373.12 K, 41184 kPa	683.5 ± 1.4	0.381 ± 0.01
373.12 K, 41207 kPa	683.6 ± 1.4	0.38 ± 0.01
373.12 K, 41221 kPa	683.6 ± 1.4	0.384 ± 0.01
373.12 K, 48024 kPa	689.2 ± 1.4	0.409 ± 0.01
373.12 K, 48032 kPa	689.1 ± 1.4	0.409 ± 0.01
373.12 K, 54853 kPa	694.6 ± 1.4	0.433 ± 0.011
373.12 K, 54866 kPa	694.6 ± 1.4	0.432 ± 0.011
373.12 K, 61686 kPa	699.8 ± 1.4	0.447 ± 0.011
373.12 K, 61704 kPa	699.8 ± 1.4	0.449 ± 0.011
423.09 K, 14725 kPa	620.5 ± 1.3	0.229 ± 0.013
423.09 K, 27159 kPa	638.8 ± 1.3	0.252 ± 0.016
423.09 K, 40831 kPa	655.5 ± 1.4	0.287 ± 0.019
423.09 K, 54591 kPa	668.8 ± 1.4	0.344 ± 0.021
423.09 K, 68420 kPa	676.4 ± 1.5	0.352 ± 0.029

Cc1ccccc1 [toluene]
Details	mass density, 323.15 K [kg/m3]	mass density, 373.11 K [kg/m3]	viscosity, 323.15 K [mPa·s]	viscosity, 373.11 K [mPa·s]
100 kPa	837 ± 1.7	–	0.421 ± 0.01	–
13270 kPa	–	807.3 ± 1.6	–	0.2924 ± 0.0071
13940 kPa	850.7 ± 1.7	–	0.482 ± 0.012	–
26975 kPa	–	822.5 ± 1.6	–	0.3398 ± 0.0088
27338 kPa	861.7 ± 1.7	–	0.524 ± 0.013	–
40789 kPa	–	834.2 ± 1.7	–	0.3691 ± 0.0092
41055 kPa	871.5 ± 1.7	–	0.571 ± 0.014	–
54593 kPa	880.1 ± 1.8	–	0.615 ± 0.015	–
54631 kPa	–	845 ± 1.7	–	0.419 ± 0.011
68135 kPa	888.1 ± 1.8	–	0.66 ± 0.016	–
68196 kPa	–	853.4 ± 1.7	–	0.436 ± 0.011
